Results as given in patent US5140044A, “UCN-1028D derivatives” (Kyowa Hakko Kogyo Co., Ltd., priority 1989, dated 1992).
In brackets after ≈: the same amount, converted by molar mass.

Assays:
Protein Kinase C = assay: Protein kinase C inhibitory activity (method of Kikkawa et al.; crude enzyme from rat brain, Histone Type II S phosphorylation); type: biochemical; conditions: crude enzyme partially purified from rat brain; [γ-32P]ATP, 30° C., 3 minutes, pH 7.5
Procedure: Protein kinase C inhibitory activity
The protein kinase C inhibitory activity was measured by the method of Kikkawa, et al. [Journal of Biological Chemistry, 257, 13341 (1982)].
That is, 10 μl of a test solution containing a UCN-1028D derivative was added to 250 μl of a solution containing 2.5 μmoles of magnesium acetate, 50 μg of Histone Type II S (manufactured by Sigma Co., Ltd.), 20 μg of phosphatidyl serine, 0.8 μg of diolein, 25 nmoles of CaCl2, 5 μg of crude enzyme (partially purified from rat brain according to the method of Kikkawa, et al.) and 5 μmoles of Tris-hydrochloride buffer (pH 7.5), followed by incubation at 30° C. for 3 minutes. Then, phosphorylation was initiated by addition of 1.25 nmoles of [γ-^32 P]ATP (5 to 10×10^3 cpm/nmole), followed by incubation at 30° C. for 3 minutes The reaction was stopped by adding 25% trichloroacetic acid (TCA), and the reaction solution was filtered through a cellulose acetate membrane (pore size: 0.45 μm) (manufactured by Toyo Filter Paper Co., Ltd.). After the membrane was washed four times with 5% TCA, radioactivity remaining on the membrane was measured. As a control, the same procedure as above was repeated without addition of the test solution and radioactivity was likewise measured. The concentration of the test solution showing 50% inhibition as compared with the control was expressed as IC50.

BALB 3T3/H-ras = assay: Anti-tumor activity: growth inhibition of BALB 3T3 cells transformed with H-ras (Giemsa staining); type: cell-based; conditions: for IC50: Mus musculus, BALB/3T3, 72 h, read-out: IC50 BALB 3T3/H-ras Inhibitory Activity; for IC50 BALB 3T3/H-ras Inhibitory Activity: growth inhibition, 72 hours, 37° C., Giemsa staining, absorbance at 620 nm
Procedure: The anti-tumor activity was determined using BALB 3T3 cells transformed with the carcinogenic gene H-ras (hereafter referred to as BALB 3T3/H-ras).
BALB 3T3/H-ras cells were suspended in a medium comprising DME medium (manufactured by Nissui Pharmaceutical Co., Ltd.) and 10% fetal calf serum (hereafter referred to as medium A) to a concentration of 3.0×10^4 /cells ml. The cell suspension thus prepared was put into wells of a 96-well microtiter plate in an amount of 0.1 ml per well. After culturing at 37° C. for 20 hours in a CO2 -incubator, 0.1 ml each of a test solution appropriately diluted with medium A was added to each well. The cells were further cultured at 37° C. for 72 hours in the CO2 -incubator and the culture supernatant was removed. After being washed once with physiological saline, the residue was treated with 0.1 ml of methanol for 10 minutes to fix the cells. Thereafter, the cells were stained with 0.1 ml of Giemsa staining solution [Giemsa staining stock solution (Merck Art 9204; manufactured by Merck Inc.) : physiological saline=1 : 10] for 5 minutes. After the staining solution was removed, the residue was washed once with 0.2 ml of water. The pigment was extracted with 0.2 ml of 0.1 N hydrochloric acid and the absorbance at 620 nm was measured with a microplate reader. By comparing the absorbance of untreated cells with those of the cells treated with the test compound at known concentrations, the concentration of the test compound at which the growth of the cells is inhibited by 50% (IC50) was calculated.

Compound | IC50 Protein Kinase C Inhibitory Activity (Protein Kinase C) | IC50 (BALB 3T3/H-ras) | IC50 BALB 3T3/H-ras Inhibitory Activity (BALB 3T3/H-ras)
COc1c(C[C@@H](C)OC(=O)OCc2ccccc2)c2c3c(C[C@@H](C)OC(=O)OCc4ccccc4)c(OC)c(=O)c4c(O)cc(OC)c(c5c(OC)cc(O)c(c1=O)c52)c43 [Compound 37, 14,17-bis-O-benzyloxycarbonyl UCN-1028D] | 0.052 µg/mL (≈ 0.0635 µM) | 0.04 µg/mL (≈ 0.0489 µM) | 
COc1c(C[C@@H](C)OC(=O)c2ccncc2)c2c3c(C[C@@H](C)OC(=O)c4ccncc4)c(OC)c(=O)c4c(O)cc(OC)c(c5c(OC)cc(O)c(c1=O)c52)c43 [Compound 33, 14,17-di-O-isonicotinyl UCN-1028D] | 0.15 µg/mL (≈ 0.197 µM) | 0.038 µg/mL (≈ 0.05 µM) | 
COc1c(C[C@@H](C)OC(=O)CCc2ccccc2)c2c3c(C[C@@H](C)OC(=O)CCc4ccccc4)c(OC)c(=O)c4c(O)cc(OC)c(c5c(OC)cc(O)c(c1=O)c52)c43 [Compound 10, 14,17-bis-O-3-phenylpropionyl UCN-1028D] | 0.045 µg/mL (≈ 0.0552 µM) | 0.95 µg/mL (≈ 1.17 µM) | 
COc1c(C[C@@H](C)O)c2c3c(C[C@@H](C)O)c(OC)c(=O)c4c(O)cc(OC)c(c5c(OC)cc(O)c(c1=O)c52)c43 [Compound 45, UCN-1028D] | 3.5 µg/mL (≈ 6.36 µM) |  | 2.2 µg/mL (≈ 4 µM)
COc1c(C[C@@H](C)OC(=O)Oc2ccccc2)c2c3c(C[C@@H](C)OC(=O)Oc4ccccc4)c(OC)c(=O)c4c(O)cc(OC)c(c5c(OC)cc(O)c(c1=O)c52)c43 [Compound 38, 14,17-bis-O-phenyloxycarbonyl UCN-1028D] | 0.058 µg/mL (≈ 0.0733 µM) | 0.015 µg/mL (≈ 0.019 µM) | 
COc1c(C[C@@H](C)OC(=O)CCCc2ccccc2)c2c3c(C[C@@H](C)OC(=O)CCCc4ccccc4)c(OC)c(=O)c4c(O)cc(OC)c(c5c(OC)cc(O)c(c1=O)c52)c43 [Compound 11, 14,17-bis-O-4-phenylbutyryl UCN-1028D] | 0.035 µg/mL (≈ 0.0415 µM) | 2.6 µg/mL (≈ 3.08 µM) | 
COc1c(C[C@@H](C)OC(=O)C2CCCCC2)c2c3c(C[C@@H](C)OC(=O)C4CCCCC4)c(OC)c(=O)c4c(O)cc(OC)c(c5c(OC)cc(O)c(c1=O)c52)c43 [Compound 8, 14,17-di-O-cyclohexanecarbonyl UCN-1028D] | 0.017 µg/mL (≈ 0.0221 µM) | 0.56 µg/mL (≈ 0.726 µM) | 
CCCCCCCCCCCC(=O)O[C@H](C)Cc1c(OC)c(=O)c2c(O)cc(OC)c3c4c(OC)cc(O)c5c(=O)c(OC)c(C[C@@H](C)OC(=O)CCCCCCCCCCC)c(c1c23)c54 [Compound 6, 14,17-di-O-dodecanoyl UCN-1028D] | 0.15 µg/mL (≈ 0.164 µM) | 4.8 µg/mL (≈ 5.24 µM) | 
COc1c(C[C@@H](C)OC(=O)c2ccc3ccccc3c2)c2c3c(C[C@@H](C)OC(=O)c4ccc5ccccc5c4)c(OC)c(=O)c4c(O)cc(OC)c(c5c(OC)cc(O)c(c1=O)c52)c43 [Compound 32, 14,17-di-O-2-naphthoyl UCN-1028D] | 0.1 µg/mL (≈ 0.116 µM) | 1.2 µg/mL (≈ 1.4 µM) | 
COc1c(C[C@@H](C)OC(=O)c2ccc(C#N)cc2)c2c3c(C[C@@H](C)OC(=O)c4ccc(C#N)cc4)c(OC)c(=O)c4c(O)cc(OC)c(c5c(OC)cc(O)c(c1=O)c52)c43 [Compound 25, 14,17-bis-O-p-cyanobenzoyl UCN-1028D] | 0.05 µg/mL (≈ 0.0618 µM) | 0.042 µg/mL (≈ 0.0519 µM) | 
C=CCCC(=O)O[C@H](C)Cc1c(OC)c(=O)c2c(O)cc(OC)c3c4c(OC)cc(O)c5c(=O)c(OC)c(C[C@@H](C)OC(=O)CCC=C)c(c1c23)c54 [Compound 7, 14,17-di-O-pentenoyl UCN-1028D] | 0.06 µg/mL (≈ 0.0839 µM) | 0.17 µg/mL (≈ 0.238 µM) | 
COc1c(C[C@@H](C)OC(=O)[C@H](N)c2ccccc2)c2c3c(C[C@@H](C)OC(=O)[C@H](N)c4ccccc4)c(OC)c(=O)c4c(O)cc(OC)c(c5c(OC)cc(O)c(c1=O)c52)c43 [Compound 16, 14,17-di-O-D-phenylglycyl UCN-1028D bistrifluoroacetate] | 0.17 µg/mL (≈ 0.208 µM) | 0.72 µg/mL (≈ 0.881 µM) | 
COc1c(C[C@@H](C)OC(=O)COc2ccccc2)c2c3c(C[C@@H](C)OC(=O)COc4ccccc4)c(OC)c(=O)c4c(O)cc(OC)c(c5c(OC)cc(O)c(c1=O)c52)c43 [Compound 13, 14,17-bis-O-phenyloxyacetyl UCN-1028D] | 0.08 µg/mL (≈ 0.0977 µM) | 0.03 µg/mL (≈ 0.0366 µM) | 
COc1c(C[C@@H](C)OC(=O)c2ccc(O)cc2)c2c3c(C[C@@H](C)OC(=O)c4ccc(O)cc4)c(OC)c(=O)c4c(O)cc(OC)c(c5c(OC)cc(O)c(c1=O)c52)c43 [Compound 26, 14,17-bis-O-p-hydroxybenzoyl UCN-1028D] | 0.084 µg/mL (≈ 0.106 µM) | 0.13 µg/mL (≈ 0.164 µM) | 
CN[C@@H](Cc1ccccc1)C(=O)O[C@H](C)Cc1c(OC)c(=O)c2c(O)cc(OC)c3c4c(OC)cc(O)c5c(=O)c(OC)c(C[C@@H](C)OC(=O)[C@H](Cc6ccccc6)NC)c(c1c23)c54 [Compound 19, 14,17-bis-O-N-methyl-L-phenylalanyl UCN-1028D bistrifluoroacetate] | 0.1 µg/mL (≈ 0.115 µM) | 0.35 µg/mL (≈ 0.401 µM) | 
COc1c(C[C@@H](C)OC(=O)c2cccc3ccccc23)c2c3c(C[C@@H](C)OC(=O)c4cccc5ccccc45)c(OC)c(=O)c4c(O)cc(OC)c(c5c(OC)cc(O)c(c1=O)c52)c43 [Compound 31, 14,17-di-O-1-naphthoyl UCN-1028D] | 0.19 µg/mL (≈ 0.221 µM) | 1.5 µg/mL (≈ 1.75 µM) | 
COc1c(C[C@@H](C)O)c2c3c(C[C@@H](C)O)c(OC)c(=O)c4c(O)cc(OC)c(c5c(OC)cc(O)c(c1=O)c52)c43 [Compound 43, UCN-1028 iso-D] | 0.74 µg/mL (≈ 1.34 µM) |  | 1.0 µg/mL (≈ 1.82 µM)
CCCNC(=O)O[C@H](C)Cc1c(OC)c(=O)c2c(O)cc(OC)c3c4c(OC)cc(O)c5c(=O)c(OC)c(C[C@@H](C)OC(=O)NCCC)c(c1c23)c54 [Compound 41, 14,17-bis-O-propylaminocarbonyl UCN-1028D] | 0.94 µg/mL (≈ 1.3 µM) | 0.68 µg/mL (≈ 0.943 µM) | 
